Test results published in US4804681A, “Metal complexes having an antineoplastic action and medicaments containing these complexes” (priority 1980, dated 1989).

Legend:
sarcoma 180 tumor cells = test: Sarcoma 180 tumor model (i.p.), median survival time T/C; type: in vivo, female NMRI mice; details: for T/C (median survival time) / cure rate (cured animals/treated animals): single dose
Experimental: 1. Sarcoma 180 tumor model
In each case about 10^6 sarcoma 180 tumor cells in 0.2 ml of physiological saline solution are transferred intraperitoneally (I.P.) to female NMRI mice which are about 6 weeks old and weigh 18 to 20 g. The tumor is kept in passage in the same mouse strain. The tumor cells are removed from freshly killed animals immediately before transplantation. On inoculation, the animals are randomized. 6 mice are used per dosage. Cisplatin and cyclophosphamide are used as the control substances. The number of control groups (untreated animals) is chosen such that it corresponds to about the square root of the total number of groups. The substances are injected intraperitoneally, in each case 24 hours after the transplantation, as suspensions in customary solubilizing agents, such as Tween® (polyoxyethylene derivatives of sorbitan esters).
The stated dose was administered once at the start of the experiment, as described. The factor T/C given in per cent denotes the percentage increase in median survival time of the treated animals compared with the median survival time of the untreated control animals. In some cases, the cure rate, that is to say the number of cured animals in relation to the number of treated animals, is given in the Table, in parentheses after the factor T/C.
The experiment is discontinued as soon as the median survival time T/C of the treated animals has reached 300% of the median survival time of the untreated animals. In calculating the median survival time, the animals still alive at the end of the experiment are taken as being dead at the end of the experiment.

sarcoma 180 cells = test: subcutaneously transplanted sarcoma 180, intravenous therapy; type: in vivo, female mice; details: 4 mg/kg i.v. as Tween 60 coprecipitate (1:20), twice weekly for 4 weeks, from 2nd week
Experimental: In a further experiment, about 5×10^6 sarcoma 180 cells were subcutaneously transplanted into twelve female mice on day 0. From the 2nd week after the transplantation, six animals were given intravenous therapy with 4 mg/kg of dichlorobis(benzoylacetonato)titanium(IV) as a Tween® 60 coprecipitate (1:20) in aqueous solution, twice weekly for 4 weeks.

Yoshida sarcoma cells = test: subcutaneously transplanted Yoshida sarcoma, intravenous therapy; type: in vivo, female SD rats
Experimental: In a further experiment, about 5×10^6 Yoshida sarcoma cells were subcutaneously transplanted into female SD rats on day 0. In the second week, 4 mg/kg of dichlorobis(benzoylacetonato)titanium(IV) as a Tween® 60 coprecipitate (1:20) in aqueous solution were administered intravenously twice. […] The recidives were treated intravenously twice weekly with the original dose for four weeks.

[1] = test system: testicular tumors, ovarian tumors, oat-cell carcinomas; details: cited from earlier work
ascitic Ehrlich tumors = details: mice; cited from earlier work
[2] = 4 mg/kg i.v. as Tween 60 coprecipitate (1:20), twice in second week

CC(=O)C=C([O][Zr]([Br])([O]C(=CC(C)=O)c1ccccc1)[O]C(=CC(C)=O)c1ccccc1)c1ccccc1 [Bromotris(benzoylacetonato)zirconium(IV)]
T/C (median survival time) (sarcoma 180 tumor cells; 92 mg/kg i.p.): 300% | T/C (median survival time) (sarcoma 180 tumor cells; 209 mg/kg i.p.): 297% | T/C (median survival time) (sarcoma 180 tumor cells; 471 mg/kg i.p.): 187%

CC(=O)[CH-]C(=O)c1ccccc1.CC(=O)[CH-]C(=O)c1ccccc1.[Br-].[Br-].[Ti+4] [Dibromobis(benzoylacetonato)titanium(IV)]
T/C (median survival time) (sarcoma 180 tumor cells; 5 mg/kg i.p.): 103% | cure rate (cured animals/treated animals) (sarcoma 180 tumor cells; 5 mg/kg i.p.): 0/6 | T/C (median survival time) (sarcoma 180 tumor cells; 20 mg/kg i.p.): 115% | cure rate (cured animals/treated animals) (sarcoma 180 tumor cells; 20 mg/kg i.p.): 0/6 | T/C (median survival time) (sarcoma 180 tumor cells; 50 mg/kg i.p.): 288% | cure rate (cured animals/treated animals) (sarcoma 180 tumor cells; 50 mg/kg i.p.): 1/6 | T/C (median survival time) (sarcoma 180 tumor cells; 70 mg/kg i.p.): 300% | cure rate (cured animals/treated animals) (sarcoma 180 tumor cells; 70 mg/kg i.p.): 3/6 | T/C (median survival time) (sarcoma 180 tumor cells; 100 mg/kg i.p.): 300% | cure rate (cured animals/treated animals) (sarcoma 180 tumor cells; 100 mg/kg i.p.): 3/6 | T/C (median survival time) (sarcoma 180 tumor cells; 150 mg/kg i.p.): 300% | cure rate (cured animals/treated animals) (sarcoma 180 tumor cells; 150 mg/kg i.p.): 4/6 | T/C (median survival time) (sarcoma 180 tumor cells; 215 mg/kg i.p.): 273% | cure rate (cured animals/treated animals) (sarcoma 180 tumor cells; 215 mg/kg i.p.): 1/6 | T/C (median survival time) (sarcoma 180 tumor cells; 315 mg/kg i.p.): 300% | cure rate (cured animals/treated animals) (sarcoma 180 tumor cells; 315 mg/kg i.p.): 5/6

CC(=O)C=C([O][Hf]([Cl])([Cl])[O]C(=CC(C)=O)c1ccccc1)c1ccccc1 [Dichlorobis(benzoylacetonato)hafnium(IV)]
T/C (median survival time) (sarcoma 180 tumor cells; 114 mg/kg i.p.): 130% | T/C (median survival time) (sarcoma 180 tumor cells; 172 mg/kg i.p.): 267% | T/C (median survival time) (sarcoma 180 tumor cells; 246 mg/kg i.p.): 300%

CC(=O)[CH-]C(=O)c1ccccc1.CC(=O)[CH-]C(=O)c1ccccc1.[Cl-].[Cl-].[Ti+4] [Dichlorobis(benzoylacetonato)titanium(IV)]
T/C (median survival time) (sarcoma 180 tumor cells; 4 mg/kg i.p.): 118% | cure rate (cured animals/treated animals) (sarcoma 180 tumor cells; 4 mg/kg i.p.): 0/6 | T/C (median survival time) (sarcoma 180 tumor cells; 16 mg/kg i.p.): 115% | cure rate (cured animals/treated animals) (sarcoma 180 tumor cells; 16 mg/kg i.p.): 0/6 | T/C (median survival time) (sarcoma 180 tumor cells; 41 mg/kg i.p.): 291% | cure rate (cured animals/treated animals) (sarcoma 180 tumor cells; 41 mg/kg i.p.): 2/6 | T/C (median survival time) (sarcoma 180 tumor cells; 57 mg/kg i.p.): 179% | cure rate (cured animals/treated animals) (sarcoma 180 tumor cells; 57 mg/kg i.p.): 0/6 | T/C (median survival time) (sarcoma 180 tumor cells; 82 mg/kg i.p.): 300% | cure rate (cured animals/treated animals) (sarcoma 180 tumor cells; 82 mg/kg i.p.): 4/6 | T/C (median survival time) (sarcoma 180 tumor cells; 123 mg/kg i.p.): 212% | cure rate (cured animals/treated animals) (sarcoma 180 tumor cells; 123 mg/kg i.p.): 1/6 | T/C (median survival time) (sarcoma 180 tumor cells; 177 mg/kg i.p.): 251% | cure rate (cured animals/treated animals) (sarcoma 180 tumor cells; 177 mg/kg i.p.): 1/6 | T/C (median survival time) (sarcoma 180 tumor cells; 259 mg/kg i.p.): 300% | cure rate (cured animals/treated animals) (sarcoma 180 tumor cells; 259 mg/kg i.p.): 5/6 | outcome of treatment (sarcoma 180 cells): cured at the end of therapy | recidives after three weeks (plum-sized) (Yoshida sarcoma cells; [2]): two out of three animals | tumor regression (Yoshida sarcoma cells; [2]): The tumor regressed | cured animals after first treatment (Yoshida sarcoma cells; 4 mg/kg i.v. as Tween 60 coprecipitate (1:20), twice in second week, three animals): One animal was cured | cured animals after treatment of recidives (Yoshida sarcoma cells; original dose i.v. twice weekly for four weeks, two animals with recidives): Both animals were cured

CC(=O)[CH-]C(=O)c1ccccc1.CC(=O)[CH-]C(=O)c1ccccc1.[F-].[F-].[Ti+4] [Difluorobis(benzoylacetonato)titanium(IV)]
T/C (median survival time) (sarcoma 180 tumor cells; 4 mg/kg i.p.): 97% | cure rate (cured animals/treated animals) (sarcoma 180 tumor cells; 4 mg/kg i.p.): 0/6 | T/C (median survival time) (sarcoma 180 tumor cells; 15 mg/kg i.p.): 115% | cure rate (cured animals/treated animals) (sarcoma 180 tumor cells; 15 mg/kg i.p.): 0/6 | T/C (median survival time) (sarcoma 180 tumor cells; 38 mg/kg i.p.): 209% | cure rate (cured animals/treated animals) (sarcoma 180 tumor cells; 38 mg/kg i.p.): 1/6 | T/C (median survival time) (sarcoma 180 tumor cells; 52 mg/kg i.p.): 300% | cure rate (cured animals/treated animals) (sarcoma 180 tumor cells; 52 mg/kg i.p.): 4/6 | T/C (median survival time) (sarcoma 180 tumor cells; 75 mg/kg i.p.): 154% | cure rate (cured animals/treated animals) (sarcoma 180 tumor cells; 75 mg/kg i.p.): 0/6 | T/C (median survival time) (sarcoma 180 tumor cells; 113 mg/kg i.p.): 300% | cure rate (cured animals/treated animals) (sarcoma 180 tumor cells; 113 mg/kg i.p.): 3/6 | T/C (median survival time) (sarcoma 180 tumor cells; 162 mg/kg i.p.): 300% | cure rate (cured animals/treated animals) (sarcoma 180 tumor cells; 162 mg/kg i.p.): 4/6 | T/C (median survival time) (sarcoma 180 tumor cells; 238 mg/kg i.p.): 300% | cure rate (cured animals/treated animals) (sarcoma 180 tumor cells; 238 mg/kg i.p.): 2/6

N.N.[Cl][Pt][Cl] [cisplatin, cis-diamminedichloroplatinum(II), reference compound]
T/C (median survival time) (sarcoma 180 tumor cells; 1 mg/kg i.p.): 112% | cure rate (cured animals/treated animals) (sarcoma 180 tumor cells; 1 mg/kg i.p.): 0/6 | T/C (median survival time) (sarcoma 180 tumor cells; 2 mg/kg i.p.): 133% | cure rate (cured animals/treated animals) (sarcoma 180 tumor cells; 2 mg/kg i.p.): 0/6 | T/C (median survival time) (sarcoma 180 tumor cells; 3 mg/kg i.p.): 300% | cure rate (cured animals/treated animals) (sarcoma 180 tumor cells; 3 mg/kg i.p.): 2/6 | T/C (median survival time) (sarcoma 180 tumor cells; 5 mg/kg i.p.): 300% | cure rate (cured animals/treated animals) (sarcoma 180 tumor cells; 5 mg/kg i.p.): 5/6 | T/C (median survival time) (sarcoma 180 tumor cells; 8 mg/kg i.p.): 300% | cure rate (cured animals/treated animals) (sarcoma 180 tumor cells; 8 mg/kg i.p.): 6/6 | T/C (median survival time) (sarcoma 180 tumor cells; 13 mg/kg i.p.): 300% | cure rate (cured animals/treated animals) (sarcoma 180 tumor cells; 13 mg/kg i.p.): 6/6 | T/C (median survival time) (sarcoma 180 tumor cells; 22 mg/kg i.p.): 42% | cure rate (cured animals/treated animals) (sarcoma 180 tumor cells; 22 mg/kg i.p.): 0/6 | median survival time compared with untreated controls (sarcoma 180 tumor cells; about 20 mg/kg): shorter than that of the untreated control animals | cure of animals (sarcoma 180 tumor cells; about 8 to 10 mg/kg): most of the animals are cured | renal damage and damage to hearing ([1]; after only a single therapeutic dose): found with considerable frequency | nausea and retching [1]: long-lasting severe nausea | antitumor activity ([1]; testicular tumors, ovarian tumors, oat-cell carcinomas): extremly potent antitumor agent

CC(=O)C=C([O][Zr]([Br])([Br])[O]C(=CC(C)=O)c1ccccc1)c1ccccc1 [dibromobis(benzoylacetonato)zirconium(IV)]
T/C (median survival time) (sarcoma 180 tumor cells; 54 mg/kg i.p.): 300% | T/C (median survival time) (sarcoma 180 tumor cells; 80 mg/kg i.p.): 300% | T/C (median survival time) (sarcoma 180 tumor cells; 126 mg/kg i.p.): 191% | T/C (median survival time) (sarcoma 180 tumor cells; 172 mg/kg i.p.): 172% | T/C (median survival time) (sarcoma 180 tumor cells; 247 mg/kg i.p.): 184%

CC(=O)C=C([O][Zr]([Cl])([Cl])[O]C(=CC(C)=O)c1ccccc1)c1ccccc1 [dichlorobis(benzoylacetonato)zirconium(IV)]
T/C (median survival time) (sarcoma 180 tumor cells; 31 mg/kg i.p.): 234% | T/C (median survival time) (sarcoma 180 tumor cells; 46 mg/kg i.p.): 300% | T/C (median survival time) (sarcoma 180 tumor cells; 68 mg/kg i.p.): 300% | T/C (median survival time) (sarcoma 180 tumor cells; 97 mg/kg i.p.): 300% | T/C (median survival time) (sarcoma 180 tumor cells; 145 mg/kg i.p.): 193% | T/C (median survival time) (sarcoma 180 tumor cells; 208 mg/kg i.p.): 144%

[Cl-].[Cl-].[Hf+4].c1cc[cH-]c1.c1cc[cH-]c1 [hafnocene dichloride]
action on ascitic Ehrlich tumors (ascitic Ehrlich tumors): inhibiting action

[Cl][Zr+2][Cl].c1cc[cH-]c1.c1cc[cH-]c1 [zirconocene dichloride]
action on ascitic Ehrlich tumors (ascitic Ehrlich tumors): inhibiting action

titanocene dichloride
action on ascitic Ehrlich tumors (ascitic Ehrlich tumors): inhibiting action
